Data taken from article PMC11297040, “Engineering of a mammalian VMAT2 for cryo-EM analysis results in non-canonical protein folding” (Nature Communications, 2024).

Legend:
OaVMAT2WT = target: T1, OaVMAT2WT (Ovis aries, UniProt A0A6P7DBQ8); test: microscale thermophoresis (RED-Tris-NTA labelled protein); type: binding
T1 construct: gene JEQ12_011695; full-length wild type; N-terminal His10-BRIL-TEV and C-terminal TEV-BRIL-His10 tags, released by TEV cleavage (called His-tagged in MST); Pichia pastoris GS115; DDM; monomer on crosslinking
T1 sequence (A0A6P7DBQ8 1-517): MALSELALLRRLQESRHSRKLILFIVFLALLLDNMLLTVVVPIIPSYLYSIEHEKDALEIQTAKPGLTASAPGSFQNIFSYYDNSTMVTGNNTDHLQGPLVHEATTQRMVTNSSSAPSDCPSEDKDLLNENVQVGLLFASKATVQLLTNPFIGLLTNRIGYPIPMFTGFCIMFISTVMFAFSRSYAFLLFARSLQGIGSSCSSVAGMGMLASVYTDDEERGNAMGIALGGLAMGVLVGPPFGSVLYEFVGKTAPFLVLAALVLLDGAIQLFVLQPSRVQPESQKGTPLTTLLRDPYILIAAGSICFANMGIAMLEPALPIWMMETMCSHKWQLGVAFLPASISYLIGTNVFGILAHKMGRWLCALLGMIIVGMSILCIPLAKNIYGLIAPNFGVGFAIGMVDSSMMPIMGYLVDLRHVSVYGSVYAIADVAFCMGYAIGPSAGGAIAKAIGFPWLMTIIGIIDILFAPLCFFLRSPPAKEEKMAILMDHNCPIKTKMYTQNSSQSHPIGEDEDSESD

HsVMAT2 [1] = target: T2, HsVMAT2 (Homo sapiens, UniProt Q05940); test: as above; type: binding
T2 construct: gene SLC18A2; full-length; N-terminal His10-BRIL-TEV and C-terminal TEV-BRIL-His10 tags, released by TEV cleavage (called His-tagged in MST); Pichia pastoris GS115; DDM
T2 sequence (Q05940 whole entry): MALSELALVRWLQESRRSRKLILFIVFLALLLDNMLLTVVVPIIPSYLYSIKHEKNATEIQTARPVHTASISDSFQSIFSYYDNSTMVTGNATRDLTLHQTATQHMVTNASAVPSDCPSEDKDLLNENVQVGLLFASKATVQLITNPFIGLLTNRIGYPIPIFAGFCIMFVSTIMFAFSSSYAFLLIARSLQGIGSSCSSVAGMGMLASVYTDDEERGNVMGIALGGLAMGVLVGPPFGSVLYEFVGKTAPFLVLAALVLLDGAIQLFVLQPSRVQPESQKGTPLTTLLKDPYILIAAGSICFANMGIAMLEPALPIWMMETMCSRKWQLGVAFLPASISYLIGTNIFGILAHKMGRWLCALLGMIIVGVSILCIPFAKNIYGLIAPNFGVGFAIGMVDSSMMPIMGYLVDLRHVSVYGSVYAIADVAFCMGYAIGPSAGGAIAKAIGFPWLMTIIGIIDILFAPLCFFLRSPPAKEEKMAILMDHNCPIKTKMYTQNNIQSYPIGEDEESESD
From the text: microscale thermophoresis (RED-Tris-NTA labelled protein) on HsVMAT2 | MST fitting curves of SER binding to HsVMAT2 WT and variants as indicated

HsVMAT2 [2] = target: T3, HsVMAT2 (Homo sapiens, UniProt Q05940, D399A); test: as above; type: binding
T3 construct: gene SLC18A2; full-length; N-terminal His10-BRIL-TEV and C-terminal TEV-BRIL-His10 tags, released by TEV cleavage (called His-tagged in MST); Pichia pastoris GS115; DDM
T3 sequence (Q05940 whole entry D399A): as the sequence (Q05940 whole entry) above, with D399A counted along it

XlVMAT2WT = target: T4, XlVMAT2WT (Xenopus laevis, UniProt A0A1L8FIB7); test: as above; type: binding
T4 construct: gene LOC108696020; full-length wild type, 514 residues, monomer; N-terminal His10-BRIL-TEV and C-terminal TEV-BRIL-His10 tags, released by TEV cleavage (called His-tagged in MST); Pichia pastoris GS115; DDM
T4 sequence (A0A1L8FIB7 1-514): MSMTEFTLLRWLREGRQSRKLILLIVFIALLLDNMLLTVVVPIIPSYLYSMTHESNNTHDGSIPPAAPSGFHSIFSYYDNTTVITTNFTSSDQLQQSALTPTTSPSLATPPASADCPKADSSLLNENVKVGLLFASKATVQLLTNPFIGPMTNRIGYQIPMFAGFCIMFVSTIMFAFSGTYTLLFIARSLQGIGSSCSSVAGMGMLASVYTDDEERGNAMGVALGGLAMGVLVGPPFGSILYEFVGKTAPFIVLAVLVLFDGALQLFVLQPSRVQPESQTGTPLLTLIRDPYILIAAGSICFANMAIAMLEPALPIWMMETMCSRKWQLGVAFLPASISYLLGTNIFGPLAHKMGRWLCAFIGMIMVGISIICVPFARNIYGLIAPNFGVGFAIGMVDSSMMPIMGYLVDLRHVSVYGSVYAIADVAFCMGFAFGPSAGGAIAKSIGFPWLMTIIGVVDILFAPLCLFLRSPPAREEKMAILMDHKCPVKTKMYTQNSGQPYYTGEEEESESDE

HsVMAT2 [3] = target: T5, HsVMAT2 (Homo sapiens, UniProt Q05940, Y433A); test: as above; type: binding
T5 construct: gene SLC18A2; full-length; N-terminal His10-BRIL-TEV and C-terminal TEV-BRIL-His10 tags, released by TEV cleavage (called His-tagged in MST); Pichia pastoris GS115; DDM
T5 sequence (Q05940 whole entry Y433A): as the sequence (Q05940 whole entry) above, with Y433A counted along it
From the text: (§1) microscale thermophoresis (RED-Tris-NTA labelled protein) on HsVMAT2 | L228A, V232A, E312A, Y341A, D399A and Y433A, reduced their binding affinities for serotonin

HsVMAT2 [4] = target: T6, HsVMAT2 (Homo sapiens, UniProt Q05940, V232A); test: as above; type: binding
T6 construct: gene SLC18A2; full-length; N-terminal His10-BRIL-TEV and C-terminal TEV-BRIL-His10 tags, released by TEV cleavage (called His-tagged in MST); Pichia pastoris GS115; DDM
T6 sequence (Q05940 whole entry V232A): as the sequence (Q05940 whole entry) above, with V232A counted along it
From the text: as §1

HsVMAT2 [5] = target: T7, HsVMAT2 (Homo sapiens, UniProt Q05940, L228A); test: as above; type: binding
T7 construct: gene SLC18A2; full-length; N-terminal His10-BRIL-TEV and C-terminal TEV-BRIL-His10 tags, released by TEV cleavage (called His-tagged in MST); Pichia pastoris GS115; DDM
T7 sequence (Q05940 whole entry L228A): as the sequence (Q05940 whole entry) above, with L228A counted along it
From the text: as §1

HsVMAT2 [6] = target: T8, HsVMAT2 (Homo sapiens, UniProt Q05940, Y341A); test: as above; type: binding
T8 construct: gene SLC18A2; full-length; N-terminal His10-BRIL-TEV and C-terminal TEV-BRIL-His10 tags, released by TEV cleavage (called His-tagged in MST); Pichia pastoris GS115; DDM
T8 sequence (Q05940 whole entry Y341A): as the sequence (Q05940 whole entry) above, with Y341A counted along it
From the text: as §1

[7] = target: OaVMAT2_(TM8/9-BRIL): sheep (Ovis aries) VMAT2 with the TM8/9 loop replaced by BRIL (Ovis aries | not stated); test: cross-linking; ~10 ug purified protein in 20 mM HEPES-Na pH 7.5, 150 mM NaCl, 5 mM beta-mercaptoethanol, 0.4 mM DDM; glutaraldehyde 4, 2 and 1 mM, 10 min, room temperature; SDS-PAGE
[8] = target: OaVMAT2_(TM8/9-BRIL): sheep (Ovis aries) VMAT2 with the TM8/9 loop replaced by BRIL (Ovis aries | not stated); test: cryo-EM structure; single-particle analysis of OaVMAT2_(TM8/9-BRIL) in 20 mM Tris-HCl pH 7.5, 150 mM NaCl, 5 mM beta-mercaptoethanol, 0.4 mM DDM; C2 symmetry imposed; 3.2 A

Row | Kd (HsVMAT2 [1]) [nM] | Kd (HsVMAT2 [2]) [µM] | Kd (HsVMAT2 [3]) [µM] | Kd (HsVMAT2 [4]) [µM] | Kd (HsVMAT2 [5]) [µM] | Kd (HsVMAT2 [6]) [nM] | stoichiometry N [7] | stoichiometry N [8] | Compound | Kd (OaVMAT2WT) [nM] | Kd (XlVMAT2WT) [nM]
1 | 450 ± 50 | 22.1 ± 3.6 | 3.91 ± 1.3 | 3.85 ± 1.61 | 3.15 ± 0.55 | 810 ± 220 |  |  | NCCc1c[nH]c2ccc(O)cc12 [serotonin] | 210 ± 60 | 430 ± 220
2 |  |  |  |  |  |  |  |  | COC(=O)[C@H]1[C@H]2C[C@@H]3c4[nH]c5cc(OC)ccc5c4CCN3C[C@H]2C[C@@H](OC(=O)c2cc(OC)c(OC)c(OC)c2)[C@@H]1OC [reserpine] | 16 ± 5.7 | 17 ± 8.8
3 |  |  |  |  |  |  | 2 | 2 | OaVMAT2_(TM8/9-BRIL): sheep (Ovis aries) VMAT2 with the TM8/9 loop replaced by BRIL |  | 
